According to patent US10414811B2, “Protease-resistant lipidated GLP-1 analogs” (MEDIMMUNE LIMITED, priority 2015, dated 2019):
pEC50: −log10 of the molar value. Like-named read-outs stand apart in the source and are kept apart here. Numbered stars: 1 amine (or outer) side, 2 acyl side, 3 side chain; on linkers, the order of the positions; unused ones are H or OH. Square brackets hold non-standard residues; d marks the D form. Side chains are listed from the residue outwards. Peptide text beside a SMILES is read from it. * marks the point of attachment. C18 diacid = O=C(O)CCCCCCCCCCCCCCCCC(=O)*; γGlu = O=C(O)[C@H](CCC(=O)[*:2])N[*:1]; Palmitoyl = CCCCCCCCCCCCCCCC(=O)*; αMeF = C[C@](N)(Cc1ccccc1)C(=O)O; αMeK = C[C@](N)(CCCCN)C(=O)O; αMeS = C[C@](N)(CO)C(=O)O; AEEA = NCCOCCOCC(=O)O; Aib = CC(C)(N)C(=O)O

What was measured:
Format in all cases: cell-based
[1] = target: T1, human glucagon receptor (GCGR) (Homo sapiens, UniProt P47871); assay: cAMP assay, human GCGR cells; details: cAMP assay
T1 construct: expressed in transfected cells
Procedure, shortened: (§1)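 Peptide-stimulated cAMP measured by two-step HTRF after a 30 min room-temperature incubation with receptor-expressing cells (hGLP-1R, hGIPR at 1×10^5 cells/ml; hGCGR at 2×10^5 cells/ml). Duplicate dilutions; EC50 from 4-parameter logistic fit of % Delta F.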

[2] = target: T2, human glucose-dependent insulinotropic peptide receptor (GIPR) (Homo sapiens, UniProt P48546); assay: cAMP assay, human GIPR cells; details: cAMP assay
T2 construct: expressed in transfected cells
T2 sequence (P48546 22-466): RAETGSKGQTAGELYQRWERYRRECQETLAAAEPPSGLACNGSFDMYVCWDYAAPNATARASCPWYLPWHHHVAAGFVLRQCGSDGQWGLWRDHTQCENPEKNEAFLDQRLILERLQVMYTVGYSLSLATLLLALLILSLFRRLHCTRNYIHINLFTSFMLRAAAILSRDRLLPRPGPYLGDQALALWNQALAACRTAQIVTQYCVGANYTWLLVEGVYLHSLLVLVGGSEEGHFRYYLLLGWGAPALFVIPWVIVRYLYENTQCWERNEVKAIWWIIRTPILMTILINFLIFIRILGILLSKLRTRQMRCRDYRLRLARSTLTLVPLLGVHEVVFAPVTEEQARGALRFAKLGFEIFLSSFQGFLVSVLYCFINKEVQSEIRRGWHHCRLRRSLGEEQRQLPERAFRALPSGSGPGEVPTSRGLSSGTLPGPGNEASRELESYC
Procedure, shortened: as §1

GLP-1R (INS1e assay) = target: T3, GLP-1R (INS1e assay) (Rattus norvegicus, UniProt P32301); assay: INS1e assay, cAMP activity at GLP-1R; details: mono-lipidated peptides; for EC50: mean of n1 and n2, read-out: INS1e assay EC50 Mean pM GLP-1R
T3 construct: endogenous in cells; host or cells: INS-1E cells
T3 sequence (P32301 22-463): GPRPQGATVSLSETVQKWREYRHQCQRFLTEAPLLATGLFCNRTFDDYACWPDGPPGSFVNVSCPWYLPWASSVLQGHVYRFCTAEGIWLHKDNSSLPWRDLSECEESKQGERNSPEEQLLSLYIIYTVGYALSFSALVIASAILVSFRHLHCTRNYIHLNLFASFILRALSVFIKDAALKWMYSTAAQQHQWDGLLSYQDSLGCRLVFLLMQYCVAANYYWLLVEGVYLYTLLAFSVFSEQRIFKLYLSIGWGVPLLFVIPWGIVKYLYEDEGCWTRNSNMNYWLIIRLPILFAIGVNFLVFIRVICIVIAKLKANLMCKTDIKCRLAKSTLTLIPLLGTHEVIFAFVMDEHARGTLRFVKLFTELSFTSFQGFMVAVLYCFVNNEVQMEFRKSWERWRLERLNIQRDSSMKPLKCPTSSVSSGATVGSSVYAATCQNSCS
Description: cAMP levels are measured using a commercially available cAMP dynamic 2 HTRF kit (Cisbio, Cat #62AM4PEJ), following the two step protocol as per manufacturer's recommendations. In brief; anti-cAMP cryptate (donor fluorophore) and cAMP-d2 (acceptor fluorophore) are made up separately by diluting each 1/20 in conjugate & lysis buffer provided in the kit. 5 μL anti-cAMP cryptate is added to wells of the assay plate, and 5 μL cAMP-d2 is added to wells except non-specific binding (NSB) wells, to which conjugate and lysis buffer are added. […] EC50 values of the synthetic peptides determined in cAMP assays are then determined.

[3] = first determination (n1), read-out: Primary assay EC50 Gluc-R (n1)
[4] = second determination (n2), read-out: Primary assay EC50 Gluc-R (n2)
[5] = first determination (n1), read-out: Primary assay EC50 GIP-R (n1)
[6] = second determination (n2), read-out: Primary assay EC50 GIP-R (n2)
[7] = replicate n1, read-out: INS1e assay EC50 GLP-1R n1
[8] = replicate n2, read-out: INS1e assay EC50 GLP-1R n2

T1 sequence (P47871 26-477): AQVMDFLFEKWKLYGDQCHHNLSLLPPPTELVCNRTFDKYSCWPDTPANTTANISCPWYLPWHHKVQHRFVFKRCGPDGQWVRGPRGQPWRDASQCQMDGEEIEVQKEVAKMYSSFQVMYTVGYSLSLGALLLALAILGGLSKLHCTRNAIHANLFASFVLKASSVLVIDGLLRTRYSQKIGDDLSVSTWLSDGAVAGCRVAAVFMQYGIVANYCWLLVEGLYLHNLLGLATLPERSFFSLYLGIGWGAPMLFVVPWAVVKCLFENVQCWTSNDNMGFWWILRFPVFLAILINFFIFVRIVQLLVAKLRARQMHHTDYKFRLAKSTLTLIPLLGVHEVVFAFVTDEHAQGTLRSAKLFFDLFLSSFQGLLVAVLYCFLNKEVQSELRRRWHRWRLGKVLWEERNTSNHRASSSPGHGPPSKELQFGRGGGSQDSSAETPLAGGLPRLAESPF

| SMILES | pEC50 [1, 3] | pEC50 [1, 4] | pEC50 [2, 5] | pEC50 [2, 6] | EC50 (GLP-1R (INS1e assay)) [pM] | pEC50 (GLP-1R (INS1e assay); [7]) | pEC50 (GLP-1R (INS1e assay); [8]) |
| --- | --- | --- | --- | --- | --- | --- | --- |
| CCCCCCCCCCCCCCCCCC(=O)NCCOCCOCC(=O)NCCOCCOCC(=O)NCCOCCOCC(=O)NCCCC[C@H](NC(=O)[C@H](C)NC(=O)[C@H](C)NC(=O)[C@H](CCC(=O)O)NC(=O)CNC(=O)[C@H](CCC(=O)O)NC(=O)[C@H](CC(C)C)NC(=O)[C@](C)(Cc1ccccc1)NC(=O)[C@H](CO)NC(=O)[C@](C)(CO)NC(=O)[C@@H](NC(=O)[C@H](CC(=O)O)NC(=O)[C@H](CO)NC(=O)[C@@H](NC(=O)[C@](C)(Cc1ccccc1)NC(=O)[C@H](CO)NC(=O)CNC(=O)[C@H](CCC(=O)O)NC(=O)C(C)(C)NC(=O)[C@@H](N)Cc1c[nH]cn1)[C@@H](C)O)C(C)C)C(=O)N[C@@H](CCC(=O)O)C(=O)N[C@@H](Cc1ccccc1)C(=O)N[C@H](C(=O)N[C@@H](C)C(=O)N[C@@](C)(Cc1ccccc1)C(=O)N[C@H](C(=O)N[C@H](C(=O)N[C@@](C)(CCCCN)C(=O)NCC(=O)NCC(N)=O)C(C)C)C(C)C)[C@@H](C)CC [compound 54] | ≤ 7.59 | ≤ 7.59 | ≤ 7.59 | ≤ 7.59 | 6 | 11.57 | 11.08 |
| CCCCCCCCCCCCCCCC(=O)N[C@@H](CCC(=O)NCCCC[C@H](NC(=O)[C@H](CCC(=O)O)NC(=O)[C@H](CC(C)C)NC(=O)[C@](C)(Cc1ccccc1)NC(=O)[C@H](CO)NC(=O)[C@](C)(CO)NC(=O)[C@@H](NC(=O)[C@H](CC(=O)O)NC(=O)[C@H](CO)NC(=O)[C@@H](NC(=O)[C@](C)(Cc1ccccc1)NC(=O)[C@H](CO)NC(=O)CNC(=O)[C@H](CCC(=O)O)NC(=O)C(C)(C)NC(=O)[C@@H](N)Cc1c[nH]cn1)[C@@H](C)O)C(C)C)C(=O)N[C@@H](CCC(=O)O)C(=O)N[C@@H](C)C(=O)N[C@@H](C)C(=O)N[C@@](C)(CCCCN)C(=O)N[C@@H](CCC(=O)O)C(=O)N[C@@](C)(Cc1ccccc1)C(=O)N[C@H](C(=O)N[C@@H](C)C(=O)N[C@@](C)(Cc1ccccc1)C(=O)N[C@H](C(=O)N[C@H](C(=O)N[C@@](C)(CCCCN)C(=O)NCC(=O)NCC(N)=O)C(C)C)C(C)C)[C@@H](C)CC)C(=O)O [compound 84] (H-H[Aib]EGS[αMeF]TSDV[αMeS]S[αMeF]LEK([γGlu-Palmitoyl])EAA[αMeK]E[αMeF]IA[αMeF]VV[αMeK]GG-NH2) | ≤ 7.57 | ≤ 7.57 | ≤ 7.57 | ≤ 7.57 | 560 | 9.34 | 9.18 |
| CCCCCCCCCCCCCCCC(=O)N[C@@H](CCC(=O)NCCCC[C@H](NC(=O)[C@H](CC(=O)O)NC(=O)[C@H](CO)NC(=O)[C@@H](NC(=O)[C@](C)(Cc1ccccc1)NC(=O)[C@H](CO)NC(=O)CNC(=O)[C@H](CCC(=O)O)NC(=O)C(C)(C)NC(=O)[C@@H](N)Cc1c[nH]cn1)[C@@H](C)O)C(=O)N[C@@](C)(CO)C(=O)N[C@@H](CO)C(=O)N[C@@](C)(Cc1ccccc1)C(=O)N[C@@H](CC(C)C)C(=O)N[C@@H](CCC(=O)O)C(=O)NCC(=O)N[C@@H](CCC(=O)O)C(=O)N[C@@H](C)C(=O)N[C@@H](C)C(=O)N[C@@](C)(CCCCN)C(=O)N[C@@H](CCC(=O)O)C(=O)N[C@@](C)(Cc1ccccc1)C(=O)N[C@H](C(=O)N[C@@H](C)C(=O)N[C@@](C)(Cc1ccccc1)C(=O)N[C@H](C(=O)N[C@H](C(=O)N[C@@](C)(CCCCN)C(=O)NCC(=O)NCC(N)=O)C(C)C)C(C)C)[C@@H](C)CC)C(=O)O [compound 90] (H-H[Aib]EGS[αMeF]TSDK([γGlu-Palmitoyl])[αMeS]S[αMeF]LEGEAA[αMeK]E[αMeF]IA[αMeF]VV[αMeK]GG-NH2) | ≤ 7.55 | ≤ 7.55 | ≤ 7.55 | ≤ 7.55 | 51 | 10.36 | 10.23 |
| CC[C@H](C)[C@H](NC(=O)[C@](C)(Cc1ccccc1)NC(=O)[C@H](CCC(=O)O)NC(=O)[C@H](CCCCNC(=O)COCCOCCNC(=O)COCCOCCNC(=O)CC[C@H](NC(=O)CCCCCCCCCCCCCCC(=O)O)C(=O)O)NC(=O)[C@H](C)NC(=O)[C@H](C)NC(=O)[C@H](CCC(=O)O)NC(=O)CNC(=O)[C@H](CCC(=O)O)NC(=O)[C@H](CC(C)C)NC(=O)[C@](C)(Cc1ccccc1)NC(=O)[C@H](CO)NC(=O)[C@](C)(CO)NC(=O)[C@@H](NC(=O)[C@H](CC(=O)O)NC(=O)[C@H](CO)NC(=O)[C@@H](NC(=O)[C@](C)(Cc1ccccc1)NC(=O)[C@H](CO)NC(=O)CNC(=O)[C@H](CCC(=O)O)NC(=O)C(C)(C)NC(=O)[C@@H](N)Cc1c[nH]cn1)[C@@H](C)O)C(C)C)C(=O)N[C@@H](C)C(=O)N[C@@](C)(Cc1ccccc1)C(=O)N[C@H](C(=O)N[C@H](C(=O)N[C@@](C)(CCCCN)C(=O)NCC(=O)NCC(N)=O)C(C)C)C(C)C [compound 109] | ≤ 7.59 | ≤ 7.59 | ≤ 7.59 | ≤ 7.59 | 6330 | 8.08 | 8.36 |
| CC[C@H](C)[C@H](NC(=O)[C@](C)(Cc1ccccc1)NC(=O)[C@H](CCC(=O)O)NC(=O)[C@](C)(CCCCN)NC(=O)[C@H](CCCCNC(=O)COCCOCCNC(=O)COCCOCCNC(=O)CC[C@H](NC(=O)CCCCCCCCCCCCCCCCC(=O)O)C(=O)O)NC(=O)[C@H](C)NC(=O)[C@H](CCC(=O)O)NC(=O)CNC(=O)[C@H](CCC(=O)O)NC(=O)[C@H](CC(C)C)NC(=O)[C@](C)(Cc1ccccc1)NC(=O)[C@H](CO)NC(=O)[C@](C)(CO)NC(=O)[C@@H](NC(=O)[C@H](CC(=O)O)NC(=O)[C@H](CO)NC(=O)[C@@H](NC(=O)[C@](C)(Cc1ccccc1)NC(=O)[C@H](CO)NC(=O)CNC(=O)[C@H](CCC(=O)O)NC(=O)C(C)(C)NC(=O)[C@@H](N)Cc1c[nH]cn1)[C@@H](C)O)C(C)C)C(=O)N[C@@H](C)C(=O)N[C@@](C)(Cc1ccccc1)C(=O)N[C@H](C(=O)N[C@H](C(=O)N[C@@](C)(CCCCN)C(=O)NCC(=O)NCC(N)=O)C(C)C)C(C)C [compound 110] (H-H[Aib]EGS[αMeF]TSDV[αMeS]S[αMeF]LEGEAK([AEEA-AEEA-γGlu-C18 diacid])[αMeK]E[αMeF]IA[αMeF]VV[αMeK]GG-NH2; N-terminus assumed) | ≤ 7.60 | ≤ 7.60 | ≤ 7.60 | ≤ 7.60 | 27400 | 7.50 | 7.64 |
| CC[C@H](C)[C@H](NC(=O)[C@](C)(Cc1ccccc1)NC(=O)[C@H](CCC(=O)O)NC(=O)[C@](C)(CCCCN)NC(=O)[C@H](C)NC(=O)[C@H](C)NC(=O)[C@H](CCC(=O)O)NC(=O)[C@H](CCCCNC(=O)COCCOCCNC(=O)COCCOCCNC(=O)CC[C@H](NC(=O)CCCCCCCCCCCCCCCCC(=O)O)C(=O)O)NC(=O)[C@H](CCC(=O)O)NC(=O)[C@H](CC(C)C)NC(=O)[C@](C)(Cc1ccccc1)NC(=O)[C@H](CO)NC(=O)[C@](C)(CO)NC(=O)[C@@H](NC(=O)[C@H](CC(=O)O)NC(=O)[C@H](CO)NC(=O)[C@@H](NC(=O)[C@](C)(Cc1ccccc1)NC(=O)[C@H](CO)NC(=O)CNC(=O)[C@H](CCC(=O)O)NC(=O)C(C)(C)NC(=O)[C@@H](N)Cc1c[nH]cn1)[C@@H](C)O)C(C)C)C(=O)N[C@@H](C)C(=O)N[C@@](C)(Cc1ccccc1)C(=O)N[C@H](C(=O)N[C@H](C(=O)N[C@@](C)(CCCCN)C(=O)NCC(=O)NCC(N)=O)C(C)C)C(C)C [compound 113] (H-H[Aib]EGS[αMeF]TSDV[αMeS]S[αMeF]LEK([AEEA-AEEA-γGlu-C18 diacid])EAA[αMeK]E[αMeF]IA[αMeF]VV[αMeK]GG-NH2; N-terminus assumed) | ≤ 7.60 | ≤ 7.60 | ≤ 7.60 | ≤ 7.60 | 1040 | 9.08 | 8.90 |
